Paper PMC8550792, “Evolution of kinase polypharmacology across HSP90 drug discovery” (Cell Chemical Biology, 2021)

Assays:
Experiment in all cases: biochemical
Type in all cases: biochemical
382 unique human kinases [1] = biological target: T1, 382 unique human kinases (Homo sapiens, UniProt Q02750, P124L); conditions: MEK1 (P124L), 10 uM; for remaining activity at 10 µM: read-out: % Enzyme Activity (relative to DMSO controls)
T1 construct: purchased Reaction Biology (HotSpot contract assay)

382 unique human kinases [2] = biological target: T2, 382 unique human kinases (Homo sapiens, UniProt P32298); conditions: kinase GRK4, compound 10 uM; for remaining activity at 10 µM: read-out: % Enzyme Activity (relative to DMSO controls)
T2 construct: purchased Reaction Biology (HotSpot contract assay)
T2 sequence (P32298 whole entry): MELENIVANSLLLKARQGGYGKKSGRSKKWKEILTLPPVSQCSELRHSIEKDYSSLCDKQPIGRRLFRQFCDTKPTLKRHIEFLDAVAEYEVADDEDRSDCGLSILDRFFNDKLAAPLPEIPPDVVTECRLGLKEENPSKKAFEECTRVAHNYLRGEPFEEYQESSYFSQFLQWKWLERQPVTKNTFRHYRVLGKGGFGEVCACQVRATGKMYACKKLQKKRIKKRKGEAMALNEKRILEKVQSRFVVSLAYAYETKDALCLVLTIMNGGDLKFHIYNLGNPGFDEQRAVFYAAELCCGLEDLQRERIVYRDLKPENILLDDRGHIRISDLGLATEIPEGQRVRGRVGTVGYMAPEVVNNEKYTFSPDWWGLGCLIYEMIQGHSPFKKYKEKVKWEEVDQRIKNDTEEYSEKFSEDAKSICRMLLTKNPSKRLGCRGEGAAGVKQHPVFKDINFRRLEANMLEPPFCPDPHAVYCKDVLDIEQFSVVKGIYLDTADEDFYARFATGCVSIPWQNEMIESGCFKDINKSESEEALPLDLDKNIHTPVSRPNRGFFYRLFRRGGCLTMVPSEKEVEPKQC

382 unique human kinases [3] = biological target: T3, 382 unique human kinases (Homo sapiens, UniProt Q9NR20); conditions: DYRK4, 10 uM; for remaining activity at 10 µM: read-out: % Enzyme Activity (relative to DMSO controls)
T3 construct: purchased Reaction Biology (HotSpot contract assay)
T3 sequence (Q9NR20 1-520): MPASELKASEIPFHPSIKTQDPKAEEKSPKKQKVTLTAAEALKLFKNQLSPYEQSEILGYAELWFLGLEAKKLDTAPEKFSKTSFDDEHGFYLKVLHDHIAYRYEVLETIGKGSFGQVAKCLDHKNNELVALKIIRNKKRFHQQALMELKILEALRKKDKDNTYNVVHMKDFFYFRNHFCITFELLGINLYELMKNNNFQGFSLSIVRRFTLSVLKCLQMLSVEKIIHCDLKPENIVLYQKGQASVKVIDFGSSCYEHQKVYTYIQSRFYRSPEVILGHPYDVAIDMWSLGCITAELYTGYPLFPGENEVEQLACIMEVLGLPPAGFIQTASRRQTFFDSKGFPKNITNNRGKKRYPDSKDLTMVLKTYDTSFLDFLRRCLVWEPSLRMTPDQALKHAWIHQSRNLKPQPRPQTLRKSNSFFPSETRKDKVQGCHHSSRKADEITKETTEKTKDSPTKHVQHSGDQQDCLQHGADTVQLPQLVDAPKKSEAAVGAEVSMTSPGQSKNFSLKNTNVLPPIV

382 unique human kinases [4] = biological target: T4, 382 unique human kinases (Homo sapiens, UniProt P08581); conditions: kinase c-MET, compound 10 uM; for remaining activity at 10 µM: read-out: % Enzyme Activity (relative to DMSO controls)
T4 construct: purchased Reaction Biology (HotSpot contract assay)
T4 sequence (P08581 25-1390): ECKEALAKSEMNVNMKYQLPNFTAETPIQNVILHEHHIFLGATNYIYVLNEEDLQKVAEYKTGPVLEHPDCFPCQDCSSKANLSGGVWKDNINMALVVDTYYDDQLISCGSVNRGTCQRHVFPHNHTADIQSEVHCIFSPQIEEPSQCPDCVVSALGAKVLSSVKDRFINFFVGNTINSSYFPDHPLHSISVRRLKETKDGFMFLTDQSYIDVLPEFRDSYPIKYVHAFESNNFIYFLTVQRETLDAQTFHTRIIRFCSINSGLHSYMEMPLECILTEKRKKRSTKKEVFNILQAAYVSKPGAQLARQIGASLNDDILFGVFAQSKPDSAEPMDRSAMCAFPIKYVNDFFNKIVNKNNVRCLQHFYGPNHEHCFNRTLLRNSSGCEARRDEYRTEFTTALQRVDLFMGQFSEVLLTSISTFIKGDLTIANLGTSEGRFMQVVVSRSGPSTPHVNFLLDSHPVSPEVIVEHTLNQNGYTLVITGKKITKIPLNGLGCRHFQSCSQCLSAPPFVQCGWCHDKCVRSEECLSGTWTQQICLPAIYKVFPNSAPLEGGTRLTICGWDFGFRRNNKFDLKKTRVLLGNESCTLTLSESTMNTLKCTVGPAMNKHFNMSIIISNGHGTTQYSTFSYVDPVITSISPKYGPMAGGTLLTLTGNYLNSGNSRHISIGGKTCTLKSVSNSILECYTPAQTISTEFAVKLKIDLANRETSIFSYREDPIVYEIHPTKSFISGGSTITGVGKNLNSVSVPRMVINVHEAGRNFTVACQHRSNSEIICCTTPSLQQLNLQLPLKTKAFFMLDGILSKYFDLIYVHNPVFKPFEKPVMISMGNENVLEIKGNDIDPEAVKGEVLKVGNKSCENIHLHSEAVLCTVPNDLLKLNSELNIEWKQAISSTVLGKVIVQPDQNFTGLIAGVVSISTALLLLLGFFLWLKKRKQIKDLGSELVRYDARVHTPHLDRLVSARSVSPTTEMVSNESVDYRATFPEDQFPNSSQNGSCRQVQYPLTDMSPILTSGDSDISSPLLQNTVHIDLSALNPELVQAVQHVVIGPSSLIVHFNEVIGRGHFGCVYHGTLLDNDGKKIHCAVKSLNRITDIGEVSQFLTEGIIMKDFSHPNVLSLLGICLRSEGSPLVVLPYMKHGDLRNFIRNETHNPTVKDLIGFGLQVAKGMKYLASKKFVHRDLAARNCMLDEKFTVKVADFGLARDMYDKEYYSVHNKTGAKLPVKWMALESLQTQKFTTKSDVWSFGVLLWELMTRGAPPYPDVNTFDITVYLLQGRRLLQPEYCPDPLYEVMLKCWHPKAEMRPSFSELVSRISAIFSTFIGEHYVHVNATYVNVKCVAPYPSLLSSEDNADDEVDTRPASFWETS

382 unique human kinases [5] = biological target: T5, 382 unique human kinases (Homo sapiens, UniProt P24723); conditions: PKCeta, 10 uM; for remaining activity at 10 µM: read-out: % Enzyme Activity (relative to DMSO controls)
T5 construct: purchased Reaction Biology (HotSpot contract assay)
T5 sequence (P24723 whole entry): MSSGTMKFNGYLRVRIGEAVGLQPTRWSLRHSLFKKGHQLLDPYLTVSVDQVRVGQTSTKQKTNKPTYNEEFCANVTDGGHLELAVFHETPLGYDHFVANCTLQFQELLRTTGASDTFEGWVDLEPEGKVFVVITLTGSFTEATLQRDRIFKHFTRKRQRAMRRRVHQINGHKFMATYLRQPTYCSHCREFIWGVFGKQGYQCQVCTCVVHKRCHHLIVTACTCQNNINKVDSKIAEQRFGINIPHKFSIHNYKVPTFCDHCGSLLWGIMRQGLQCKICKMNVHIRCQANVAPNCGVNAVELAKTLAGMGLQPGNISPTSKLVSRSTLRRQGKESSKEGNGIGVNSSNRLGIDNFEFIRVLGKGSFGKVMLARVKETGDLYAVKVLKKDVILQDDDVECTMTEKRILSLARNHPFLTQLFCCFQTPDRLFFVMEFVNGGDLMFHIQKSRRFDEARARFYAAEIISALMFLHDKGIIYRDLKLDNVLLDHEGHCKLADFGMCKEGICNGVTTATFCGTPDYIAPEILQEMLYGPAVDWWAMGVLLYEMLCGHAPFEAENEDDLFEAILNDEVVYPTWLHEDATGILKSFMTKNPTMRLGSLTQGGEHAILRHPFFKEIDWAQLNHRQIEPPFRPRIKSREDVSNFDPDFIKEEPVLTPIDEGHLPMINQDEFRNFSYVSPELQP

382 unique human kinases [6] = biological target: T6, 382 unique human kinases (Homo sapiens, UniProt P29376); conditions: TYK1/LTK, 10 uM; for remaining activity at 10 µM: read-out: % Enzyme Activity (relative to DMSO controls)
T6 construct: purchased Reaction Biology (HotSpot contract assay)

382 unique human kinases [7] = biological target: T7, 382 unique human kinases (Homo sapiens, UniProt P15735); conditions: PHKg2, compound at 10 uM, duplicate values; for remaining activity at 10 µM: read-out: % Enzyme Activity (relative to DMSO controls)
T7 construct: purchased Reaction Biology (HotSpot contract assay)
T7 sequence (P15735 1-406): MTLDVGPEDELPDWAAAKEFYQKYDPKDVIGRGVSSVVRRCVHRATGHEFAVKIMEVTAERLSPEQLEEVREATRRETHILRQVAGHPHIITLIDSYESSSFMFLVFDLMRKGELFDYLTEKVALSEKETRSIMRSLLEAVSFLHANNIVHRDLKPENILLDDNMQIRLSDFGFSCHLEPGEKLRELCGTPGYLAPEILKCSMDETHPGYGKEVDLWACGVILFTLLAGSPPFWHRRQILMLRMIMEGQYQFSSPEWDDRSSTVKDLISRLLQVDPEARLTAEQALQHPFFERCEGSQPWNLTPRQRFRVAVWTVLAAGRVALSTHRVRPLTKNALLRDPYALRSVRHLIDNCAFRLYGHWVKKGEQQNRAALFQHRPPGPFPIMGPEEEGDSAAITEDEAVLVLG

382 unique human kinases [8] = biological target: T8, 382 unique human kinases (Homo sapiens, UniProt Q16539, T106M); conditions: P38a (T106M), 10 uM; for remaining activity at 10 µM: read-out: % Enzyme Activity (relative to DMSO controls)
T8 construct: purchased Reaction Biology (HotSpot contract assay)
T8 sequence (Q16539 whole entry T106M): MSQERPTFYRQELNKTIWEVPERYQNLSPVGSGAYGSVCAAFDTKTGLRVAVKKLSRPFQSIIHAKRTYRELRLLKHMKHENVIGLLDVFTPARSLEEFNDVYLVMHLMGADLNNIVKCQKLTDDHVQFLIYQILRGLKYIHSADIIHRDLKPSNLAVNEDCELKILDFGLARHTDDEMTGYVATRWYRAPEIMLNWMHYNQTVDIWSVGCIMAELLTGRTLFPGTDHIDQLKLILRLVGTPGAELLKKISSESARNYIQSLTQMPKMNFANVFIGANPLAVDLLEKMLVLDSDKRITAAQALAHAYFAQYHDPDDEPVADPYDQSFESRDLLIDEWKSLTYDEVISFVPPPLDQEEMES

382 unique human kinases [9] = biological target: T9, 382 unique human kinases (Homo sapiens, UniProt P10721, D816Y); conditions: c-Kit (D816Y), [ATP] 10 µM, compound 10 uM; for remaining activity at 10 µM: read-out: % Enzyme Activity (relative to DMSO controls)
T9 construct: purchased Reaction Biology (HotSpot contract assay)
T9 sequence (P10721 26-976 D816Y): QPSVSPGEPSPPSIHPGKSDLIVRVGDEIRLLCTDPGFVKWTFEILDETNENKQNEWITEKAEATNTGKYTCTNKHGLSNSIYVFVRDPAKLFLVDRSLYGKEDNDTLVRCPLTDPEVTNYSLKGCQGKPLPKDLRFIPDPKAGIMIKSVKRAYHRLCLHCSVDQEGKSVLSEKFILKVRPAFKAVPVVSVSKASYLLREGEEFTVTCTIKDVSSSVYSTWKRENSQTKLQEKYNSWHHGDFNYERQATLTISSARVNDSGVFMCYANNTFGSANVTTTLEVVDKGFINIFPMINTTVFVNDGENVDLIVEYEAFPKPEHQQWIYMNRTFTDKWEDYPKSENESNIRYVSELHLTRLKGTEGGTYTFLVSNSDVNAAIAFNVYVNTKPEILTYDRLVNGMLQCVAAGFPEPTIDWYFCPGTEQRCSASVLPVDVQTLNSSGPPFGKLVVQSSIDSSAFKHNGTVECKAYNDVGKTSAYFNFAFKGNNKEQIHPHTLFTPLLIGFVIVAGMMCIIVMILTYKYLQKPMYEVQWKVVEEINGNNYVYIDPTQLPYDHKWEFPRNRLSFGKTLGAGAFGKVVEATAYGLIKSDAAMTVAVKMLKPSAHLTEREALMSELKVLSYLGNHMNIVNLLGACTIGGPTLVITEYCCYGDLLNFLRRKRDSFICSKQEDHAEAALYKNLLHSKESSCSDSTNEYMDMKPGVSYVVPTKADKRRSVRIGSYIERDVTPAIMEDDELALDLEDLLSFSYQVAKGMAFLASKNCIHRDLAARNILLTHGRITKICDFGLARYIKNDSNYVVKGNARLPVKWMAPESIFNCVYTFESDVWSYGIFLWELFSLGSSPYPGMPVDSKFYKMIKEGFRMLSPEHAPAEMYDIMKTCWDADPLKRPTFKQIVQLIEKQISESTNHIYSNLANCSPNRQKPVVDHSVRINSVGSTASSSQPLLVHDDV

382 unique human kinases [10] = biological target: T10, 382 unique human kinases (Homo sapiens, UniProt P37023); conditions: ALK1/ACVRL1, 10 uM; for remaining activity at 10 µM: read-out: % Enzyme Activity (relative to DMSO controls)
T10 construct: purchased Reaction Biology (HotSpot contract assay)
T10 sequence (P37023 22-503): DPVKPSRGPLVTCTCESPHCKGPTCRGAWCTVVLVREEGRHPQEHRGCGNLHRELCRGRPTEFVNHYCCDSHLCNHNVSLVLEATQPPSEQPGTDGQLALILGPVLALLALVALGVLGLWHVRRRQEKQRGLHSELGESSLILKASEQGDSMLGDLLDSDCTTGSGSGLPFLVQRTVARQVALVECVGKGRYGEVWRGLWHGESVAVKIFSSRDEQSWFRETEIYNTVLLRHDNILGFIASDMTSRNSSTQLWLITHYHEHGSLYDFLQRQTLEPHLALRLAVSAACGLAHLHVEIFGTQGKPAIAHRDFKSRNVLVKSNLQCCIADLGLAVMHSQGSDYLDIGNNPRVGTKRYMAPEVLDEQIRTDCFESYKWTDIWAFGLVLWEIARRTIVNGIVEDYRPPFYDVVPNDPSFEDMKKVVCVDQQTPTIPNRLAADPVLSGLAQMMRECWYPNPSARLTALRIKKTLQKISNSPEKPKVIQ

382 unique human kinases [11] = biological target: T11, 382 unique human kinases (Homo sapiens, UniProt Q08881); conditions: ITK, 10 uM; for remaining activity at 10 µM: read-out: % Enzyme Activity (relative to DMSO controls)
T11 construct: purchased Reaction Biology (HotSpot contract assay)
T11 sequence (Q08881 1-620): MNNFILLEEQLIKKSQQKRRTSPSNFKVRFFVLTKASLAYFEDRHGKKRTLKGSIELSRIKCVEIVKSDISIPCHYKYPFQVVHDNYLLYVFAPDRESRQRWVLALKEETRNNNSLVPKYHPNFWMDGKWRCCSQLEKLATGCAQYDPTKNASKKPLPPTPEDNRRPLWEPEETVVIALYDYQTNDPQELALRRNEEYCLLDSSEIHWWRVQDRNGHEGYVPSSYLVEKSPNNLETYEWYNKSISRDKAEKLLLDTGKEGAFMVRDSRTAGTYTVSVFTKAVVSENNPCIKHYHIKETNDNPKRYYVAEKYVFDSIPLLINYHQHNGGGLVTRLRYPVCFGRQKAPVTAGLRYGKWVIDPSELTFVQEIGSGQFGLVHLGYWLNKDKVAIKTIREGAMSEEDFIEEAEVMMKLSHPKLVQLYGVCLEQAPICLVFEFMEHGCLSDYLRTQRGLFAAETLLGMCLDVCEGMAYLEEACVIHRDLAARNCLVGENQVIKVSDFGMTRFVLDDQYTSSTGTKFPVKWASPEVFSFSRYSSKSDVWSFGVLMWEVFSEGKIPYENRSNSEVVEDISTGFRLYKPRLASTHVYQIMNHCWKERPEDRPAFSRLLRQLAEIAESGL

382 unique human kinases [12] = biological target: T12, 382 unique human kinases (Homo sapiens, UniProt Q13555); conditions: CAMK2g, 10 uM; for remaining activity at 10 µM: read-out: % Enzyme Activity (relative to DMSO controls)
T12 construct: purchased Reaction Biology (HotSpot contract assay)
T12 sequence (Q13555 whole entry): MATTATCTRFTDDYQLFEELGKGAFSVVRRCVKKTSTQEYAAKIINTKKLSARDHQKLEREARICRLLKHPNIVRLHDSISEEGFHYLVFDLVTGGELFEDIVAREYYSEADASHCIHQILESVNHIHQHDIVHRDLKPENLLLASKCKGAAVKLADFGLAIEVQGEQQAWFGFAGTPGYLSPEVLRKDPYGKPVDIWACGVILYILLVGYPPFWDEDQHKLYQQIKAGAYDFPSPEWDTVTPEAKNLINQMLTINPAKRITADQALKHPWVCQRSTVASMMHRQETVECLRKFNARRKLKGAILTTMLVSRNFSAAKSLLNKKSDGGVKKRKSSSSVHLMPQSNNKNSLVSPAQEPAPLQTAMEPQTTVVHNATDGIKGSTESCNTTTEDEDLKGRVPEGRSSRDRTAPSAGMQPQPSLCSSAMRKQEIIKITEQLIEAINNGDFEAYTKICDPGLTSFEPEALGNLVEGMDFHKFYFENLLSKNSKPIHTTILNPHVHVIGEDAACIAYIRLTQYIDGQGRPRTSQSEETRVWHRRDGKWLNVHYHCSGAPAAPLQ

SMILES: CC(C)c1cc(-c2n[nH]c(=O)n2-c2ccc3c(ccn3C)c2)c(O)cc1O [Ganetespib (STA9090)]
- remaining activity at 10 µM (382 unique human kinases [1]): 73.7%
- remaining activity at 10 µM (382 unique human kinases [2]): 90%
- remaining activity at 10 µM (382 unique human kinases [3]): 96.8%
- remaining activity at 10 µM (382 unique human kinases [4]): 82.2%
- remaining activity at 10 µM (382 unique human kinases [5]): 75.8%
- remaining activity at 10 µM (382 unique human kinases [6]): 73.6%
- remaining activity at 10 µM (382 unique human kinases [7]): 105%

SMILES: CC(C)c1cc(-c2n[nH]c(=O)n2-c2ccc3c(ccn3C)c2)c(O)cc1O [Ganetespib]
- remaining activity at 10 µM (382 unique human kinases [8]): 95.8%
- remaining activity at 10 µM (382 unique human kinases [9]): 32.1%
- remaining activity at 10 µM (382 unique human kinases [10]): 95.6%
- remaining activity at 10 µM (382 unique human kinases [11]): 95.6%
- remaining activity at 10 µM (382 unique human kinases [12]): 98.8%

SMILES: CCNC(=O)c1noc(-c2cc(C(C)C)c(O)cc2O)c1-c1ccc(CN2CCOCC2)cc1 [Luminespib]
- % Enzyme Activity (relative to DMSO controls) (382 unique human kinases [8]): 98.91%
- remaining activity at 10 µM (382 unique human kinases [8]): 99.8%
- % Enzyme Activity (relative to DMSO controls) (382 unique human kinases [9]): 53.55%
- remaining activity at 10 µM (382 unique human kinases [9]): 57.9%
- % Enzyme Activity (relative to DMSO controls) (382 unique human kinases [10]): 102.87%
- remaining activity at 10 µM (382 unique human kinases [10]): 105%
- % Enzyme Activity (relative to DMSO controls) (382 unique human kinases [11]): 92.96%
- remaining activity at 10 µM (382 unique human kinases [11]): 94.1%
- % Enzyme Activity (relative to DMSO controls) (382 unique human kinases [12]): 105.88%
- remaining activity at 10 µM (382 unique human kinases [12]): 106%

SMILES: CCNC(=O)c1noc(-c2cc(C(C)C)c(O)cc2O)c1-c1ccc(CN2CCOCC2)cc1 [Luminespib (AUY-922)]
- % Enzyme Activity (relative to DMSO controls) (382 unique human kinases [1]): 99.77%
- remaining activity at 10 µM (382 unique human kinases [1]): 102%
- % Enzyme Activity (relative to DMSO controls) (382 unique human kinases [2]): 97.37%
- remaining activity at 10 µM (382 unique human kinases [2]): 97.7%
- % Enzyme Activity (relative to DMSO controls) (382 unique human kinases [3]): 63.33%
- remaining activity at 10 µM (382 unique human kinases [3]): 66.1%
- % Enzyme Activity (relative to DMSO controls) (382 unique human kinases [4]): 99.56%
- remaining activity at 10 µM (382 unique human kinases [4]): 105%
- % Enzyme Activity (relative to DMSO controls) (382 unique human kinases [5]): 105.31%
- remaining activity at 10 µM (382 unique human kinases [5]): 106%
- % Enzyme Activity (relative to DMSO controls) (382 unique human kinases [6]): 97.76%
- remaining activity at 10 µM (382 unique human kinases [6]): 98.2%
- % Enzyme Activity (relative to DMSO controls) (382 unique human kinases [7]): 106.26%
- remaining activity at 10 µM (382 unique human kinases [7]): 107%
